Like-named read-outs stand apart in the source and are kept apart here.
How the values were obtained:
HIV-1 [1] = details: prior inhibitors; read-out: ID50 (the source's name); cited from earlier work
cytotoxicity CC50 = type: cell-based, Human; details: human
HIV-1NL4-3 [2] = experiment: in vitro selection of PI-resistant HIV-1 variants in MT-4 cells; type: cell-based; details: HIV-1NL4-3 in MT-4 cells, increasing drug concentrations
From the text: The culture supernatants were harvested on day 7 and used to infect fresh MT-4 cells for the next round of culture in the presence of increasing concentrations of each drug.

HIV-1 [3] = experiment: antiviral assay (IC50); type: cell-based; details: Human immunodeficiency virus 1, Table 2; read-out: IC50
Method: (§1) The inhibitory potencies of acyclic and cyclic inhibitors were measured by the assay protocol of Toth and Marshall (Toth, M. V.; Marshall, G. R. A simple, continuous fluorometric assay for HIV protease. Int. J. Pep. Protien Res. 1990, 36, 544-55).

HIV-1 protease = target: T1, HIV-1 protease (Human immunodeficiency virus type 1 group M subtype B, UniProt P04585); experiment: HIV protease enzyme inhibition, fluorometric assay of Toth and Marshall; type: biochemical; details: Ki, Table 2
T1 construct: A simple, continuous fluorometric assay for HIV protease
Method: as §1

HIV-1396-1μM = experiment: microbe, parasite or virus in culture; type: cell-based, HIV-1; details: for EC50: Human immunodeficiency virus 1, MT4, read-out: EC50 (μM), HIV-1396-1 μM
Method: (§2) Briefly, MT-2 cells (2×10^4/ml) were exposed to 100 50% tissue culture infectious doses (TCID50S) of HIV-1LAI, in the presence or absence of various concentrations of drugs in 96-well microculture plates and were incubated at 37° C. for 7 days. After 100 μl of the medium was removed from each well, 3-(4,5-dimetylthiazol-2-yl)-2,5-diphenyltetrazolium bromide (MTT) solution (10 μl, 7.5 mg/ml in phosphate-buffered saline) was added to each well in the plate, followed by incubation at 37° C. for 3 h. […] All assays were performed in duplicate or triplicate. […] To determine the drug susceptibility of certain laboratory HIV-1 strains, MT-4 cells were used as target cells. In brief, MT-4 cells (10^5/ml) were exposed to 100 TCID50S of drug-resistant HIV-1 strains in the presence or absence of various concentrations of drugs and on day 7 of culture, the supernatant was harvested and the amounts of p24 Gag protein were determined. […] All assays were performed in duplicate or triplicate.
(§3) Numbers in parentheses represent n-fold changes in EC50s for each isolate compared to the EC50s for wild-type HIV-1NL4-3.

HIV-1246-1μM = experiment: microbe, parasite or virus in culture; type: cell-based, HIV-1; details: for EC50: Human immunodeficiency virus 1, MT4, read-out: EC50 (μM), HIV-1246-1 μM
Method: as §2, §3

HIV-1286-1μM = experiment: microbe, parasite or virus in culture; type: cell-based, HIV-1
Method: as §2, §3

HIV-1216-P50 = experiment: microbe, parasite or virus in culture; type: cell-based, HIV-1
Method: as §2, §3

HIV-1LAI = experiment: drug susceptibility, MT-2 cells, MTT assay, HIV-1LAI; type: cell-based
Method: (§4) All assays were performed in duplicate or triplicate. […] All assays were performed in duplicate or triplicate.
(§5) Each selectivity index denotes a ratio of CC50 to EC50 against HIV-1LAI N.D., not done.

HIV-1NL4-3 [4] = experiment: p24 Gag inhibition in MT-4 cells, HIV-1NL4-3; type: cell-based; details: Human immunodeficiency virus 1, MT4, read-out: EC50 (μM), HIV-1NL4-3, Table 9, mean ± 1 SD
Method: as §4

HIV-1LPV5μM = experiment: microbe, parasite or virus in culture; type: cell-based; details: Human immunodeficiency virus 1, MT4, read-out: EC50 (μM), HIV-1LPV5 μM
Method: (§6) The susceptibility of HIV-1LAI and primary HIV-1 isolates to various drugs were determined as described previously (Koh et al. 2003 Antimicrob Agents Chemother 47:3123-9). Briefly, MT-2 cells (2×10^4/ml) were exposed to 100 50% tissue culture infectious doses (TCID50S) of HIV-1LAI, in the presence or absence of various concentrations of drugs in 96-well microculture plates and were incubated at 37° C. for 7 days. After 100 μl of the medium was removed from each well, 3-(4,5-dimetylthiazol-2-yl)-2,5-diphenyltetrazolium bromide (MTT) solution (10 μl, 7.5 mg/ml in phosphate-buffered saline) was added to each well in the plate, followed by incubation at 37° C. for 3 h. […] All assays were performed in duplicate or triplicate. To determine the susceptibility of primary HIV-1 isolates to drugs, phytohemagglutinin-activated peripheral blood mononuclear cells (PHA-PBMCs; 106/ml) were exposed to 50 TCID50S of each. The target cells were exposed to HIV-1104pre or drug-resistant HIV-1 in the presence or absence of various concentrations of drugs and were incubated for 7 days. Upon the conclusion of the culture, the amounts of p24 Gag protein in the supernatants were determined using a fully automated chemiluminescent enzyme immunoassay system (Lumipulse F; Fujirebio Inc., Tokyo, Japan) (Maeda et al. 2001 J Biol Chem 276:35194-200). To determine the drug susceptibility of certain laboratory HIV-1 strains, MT-4 cells were used as target cells. In brief, MT-4 cells (10^5/ml) were exposed to 100 TCID50S of drug-resistant HIV-1 strains in the presence or absence of various concentrations of drugs and on day 7 of culture, the supernatant was harvested and the amounts of p24 Gag protein were determined. […] All assays were performed in duplicate or triplicate.
as §3

HIV-1APV5μM = experiment: microbe, parasite or virus in culture; type: cell-based; details: Human immunodeficiency virus 1, MT4, read-out: EC50 (μM), HIV-1APV5 μM
Method: as §6, §3

HIV-2EHO = experiment: drug susceptibility, MT-2 cells, MTT assay, HIV-2EHO; type: cell-based; details: Human immunodeficiency virus 2, MT2, read-out: EC50 (μM) for HIV-2EHO
Method: as §4, §5

HIV-2ROD = experiment: drug susceptibility, MT-2 cells, MTT assay, HIV-2ROD; type: cell-based; details: Human immunodeficiency virus 2, MT2, read-out: EC50 (μM) for HIV-2ROD
Method: as §4, §5

[5] = system: multidrug-resistant clinical HIV-1 isolates (HIV-1MDR); experiment: microbe, parasite or virus in culture; type: cell-based
Method: as §6
(§7) These clinical strains contained 9 to 14 amino acid substitutions in the protease-encoding region, which have reportedly been associated with HIV-1 resistance to various PIs.
(§8) Amino acid substitutions identified in the protease-encoding region compared to the consensus type B sequence cited from the Los Alamos database include L63P in HIV-1ERS104pre; L10I, K14R, L33I, M36I, M46I, F53I, K55R, I62V, L63P, A71V, G73S, V82A, L90M, and I93L in HIV-1MDR/B; L10I, I15V, K20R, L24I, M36I, M46L, I54V, I62V, L63P, K70Q, V82A, and L89M in HIV-1MDR/C; L10I, V11I, T12E, I15V, L19I, R41K, M46L, L63P, A71T, V82A, and L90M in HIV-1MDR/G; L10I, K14R, R41K, M46L, I54V, L63P, A71V, V82A, L90M, I93L in HIV-1MDR/TM; L10I, K43T, M46L, I54V, L63P, A71V, V82A, L90M, and Q92K in HIV-1MDR/MM; L10I, L24I, I33F, E35D, M36I, N37S, M46L, I54V, R57K, I62V, L63P, A71V, G73S, and V82A in HIV-1MDR/JSL. HIV-1ERS104pre served as a source of wild-type HIV-1. EC50s were determined by using PHA-PBMs as target cells, and inhibition of p24 Gag protein production by each drug was used as an end point. Numbers in parentheses represent n-fold changes of EC50s for each isolate compared to EC50s for wild-type HIV-1ERS104pre.

HIV-1MDR/G = type: cell-based
Method: as §6, §7, §8

HIV-1MDR/B = type: cell-based
Method: as §6, §7, §8

HIV-1MDR/C = type: cell-based
Method: as §6, §7, §8

HIV-1MDR/TM = type: cell-based
Method: as §6, §7, §8

[6] = system: HIV-1ERS104pre (wild-type); experiment: p24 Gag inhibition in PHA-PBMCs, HIV-1ERS104pre; type: cell-based; details: mean ± 1 SD
Method: as §6, §7, §8

HIV-1MDR/JSL = experiment: microbe, parasite or virus in culture; type: cell-based
Method: as §6, §7, §8

HIV-1MDR/MM = experiment: microbe, parasite or virus in culture; type: cell-based
Method: as §6, §7, §8

[7] = compared to wild-type HIV-1NL4-3
[8] = compared to wild-type HIV-1ERS104pre

COc1ccc(S(=O)(=O)N(CC(C)C)CC(O)C(Cc2ccccc2)NC(=O)OC2COC3OCCC23)cc1 (stereo not shown) [Compound 2, TMC-126]
IC50 (HIV-1 [1]): 0.0012 µM

COc1ccc2c(c1)OCC=CCCCCN(CC(O)C(Cc1ccccc1)NC(=O)OC1COC3OCCC13)S2(=O)=O (stereo not shown) [Compound 14d]
CC50 (cytotoxicity CC50): 44.9 ± 4.1 µM | passage by which HIV-1 variants replicating in the presence of 1 μM drug emerged (HIV-1NL4-3 [2]): 33 passages | IC50 (HIV-1 [3]): < 0.1 µM | Ki (HIV-1 protease): < 0.001 µM | EC50 (HIV-1396-1μM): 0.52 ± 0.07 µM | n-fold change in EC50, HIV-1396-1 μM (HIV-1396-1μM; [7]): (31) | EC50 (HIV-1246-1μM): 0.37 ± 0.013 µM | n-fold change in EC50, HIV-1246-1 μM (HIV-1246-1μM; [7]): (22) | EC50 (HIV-1286-1μM; Human immunodeficiency virus 1, MT4, read-out: EC50 (μM), HIV-1286-1 μM): > 1 µM | n-fold change in EC50, HIV-1286-1 μM (HIV-1286-1μM; [7]): > 59 | EC50 (HIV-1216-P50; Human immunodeficiency virus 1, MT4, read-out: EC50 (μM), HIV-1216-p50): 0.24 ± 0.06 µM | n-fold change in EC50, HIV-1216-p50 (HIV-1216-P50; [7]): (14) | EC50 (HIV-1LAI; Human immunodeficiency virus 1, MT2, read-out: EC50 (μM) for HIV-1LAI): 0.014 ± 0.001 µM | Selectivity Index (HIV-1LAI; ratio of CC50 to EC50 against HIV-1LAI): 3,200 | EC50 (HIV-1NL4-3 [4]): 0.017 ± 0.005 µM

CC(C)CN(C[C@@H](O)[C@H](Cc1ccccc1)NC(=O)O[C@H]1CO[C@H]2OCC[C@H]21)S(=O)(=O)c1ccc(N)cc1 [DRV, Darunavir]
EC50 (HIV-1LPV5μM): 0.025 ± 0.0066 µM | EC50 (HIV-1APV5μM): 0.29 ± 0.0018 µM | EC50 (HIV-2EHO): 0.008 ± 0.007 µM | EC50 (HIV-1396-1μM): 0.016 ± 0.001 µM | EC50 (HIV-1246-1μM): 0.029 ± 0.001 µM | EC50 (HIV-2ROD): 0.01 ± 0.004 µM | EC50 ([5]; Human immunodeficiency virus 1, read-out: greatest EC50 value against the clinical isolates): 0.027 µM

CC(C)(C)NC(=O)[C@@H]1CN(Cc2cccnc2)CCN1C[C@@H](O)C[C@@H](Cc1ccccc1)C(=O)N[C@H]1c2ccccc2C[C@H]1O [IDV, Indinavir]
EC50 (μM), HIV-1MDR/G (SI) (HIV-1MDR/G; PHA-PBMCs, p24 Gag): 0.34 ± 0.14 µM | n-fold change of EC50, HIV-1MDR/G (HIV-1MDR/G; [8]): (5) | EC50 (μM), HIV-1MDR/B (SI) (HIV-1MDR/B; PHA-PBMCs, p24 Gag): > 1 µM | n-fold change of EC50, HIV-1MDR/B (HIV-1MDR/B; [8]): > 23 | EC50 (μM), HIV-1MDR/C (SI) (HIV-1MDR/C; PHA-PBMCs, p24 Gag): > 1 µM | n-fold change of EC50, HIV-1MDR/C (HIV-1MDR/C; [8]): > 23 | EC50 (μM), HIV-1MDR/TM (SI) (HIV-1MDR/TM; PHA-PBMCs, p24 Gag): > 1 µM | n-fold change of EC50, HIV-1MDR/TM (HIV-1MDR/TM; [8]): > 23 | EC50 (μM), HIV-1ERS104pre (wild-type SI) [6]: 0.043 ± 0.004 µM | EC50 (HIV-1MDR/JSL; Human immunodeficiency virus 1, read-out: EC50 (μM), HIV-1MDR/JSL (NSI)): > 1 µM | n-fold change of EC50, HIV-1MDR/JSL (HIV-1MDR/JSL; [8]): > 23 | EC50 ([5]; Human immunodeficiency virus 1, read-out: EC50 with multidrug-resistant clinical HIV-1 isolates (mostly)): > 1 µM | EC50 (HIV-1MDR/MM; Human immunodeficiency virus 1, read-out: EC50 (μM), HIV-1MDR/MM (NSI)): > 1 µM | n-fold change of EC50, HIV-1MDR/MM (HIV-1MDR/MM; [8]): > 23
